Entries after “also recorded” stand apart in the source; their conditions may differ.
Columns and labels:
Type in all cases: cell-based, human
Jurkat cells = test: FACS analysis of NST830 uptake by Jurkat cells induced to undergo apoptosis by anti-Fas antibody (PI co-staining); conditions: upper right quadrant
Description: FIG. 7 Jurkat cells were induced to undergo apoptosis by anti-Fas Ab treatment as described for FIG. 3 above. Subsequently, cells were incubated with 50 μM of NST830 for 5 minutes, co-stained with PI and subjected to FACS analysis. In order to inhibit PLS in apoptotic cells, two approaches were used:
(i). Ca^2+-deprivation: apoptotic cells were incubated for 30 min at room temperature in the presence of BAPTA (20 μM) and EGTA (1 mM), and then treated with NST830 and PI as above.
(ii). PLS inhibition by rottlerin: prior to treatment with NST830 and PI, apoptotic cells were incubated for 40 min in the presence of 0.5 μM of rottlerin, and then submitted to FACS analysis.
Cultured Jurkat cells were induced to undergo apoptosis by anti-Fas antibody (0.1 μg/ml) for 2.5 hours, as described in Example 1. Subsequently, both control and apoptotic cells were incubated with 50 μM of NST830 for 5 minutes, and uptake was measured by FACS. Prior to FACS analysis, cells were also co-stained with PI. Induction of apoptosis was associated with the emergence of a large, distinct population of 64% of cells in the early stages of the apoptotic process, selectively binding NST830 and occupying the right lower quadrant of the plot. No substantial change was observed under these conditions in the percentage of cells in late apoptosis, that are unselectively permeable to PI and NST830. […]

activated platelets = test: FACS analysis of DDC uptake by control and activated platelets
Description: (§1) FIG. 6: Control and activated platelets were co-incubated with DDC (at a final concentration of 5 μM under three different conditions: no further treatment; Ca^2+-deprivation due to incubation with BAPTA and EGTA; and restoration of Ca^2+ following re-addition of Ca^2+ and calcium-ionophore A23187. Platelets were then subjected to FACS analysis.
(§2) The selective binding of DDC to activated platelets was determined using flow cytometric (FACS) analysis. Platelet rich plasma was obtained from healthy volunteers. 10^9 fresh platelets were centrifuged (5 minutes, 380×g), washed and re-suspended in Tyrode's buffer (137 mM NaCl; 2.8 mM KCl; 1 mM MgCl2, 12 mM NaHCO3; 0.4 mM Na2HPO4; 5.5 mM D-glucose and 10 mM Hepes pH 7.4; 0.35% BSA). Control platelets were kept on ice.
(§3) For activation, 200 μl of washed platelets were incubated with the calcium ionophore A23187 in the presence of 5 mM of CaCl2, at room temperature. Following incubation, platelets were centrifuged (2 min., 10^4 rpm) and re-suspended in 1 ml of Tyrode's buffer. Activated platelets were subsequently incubated with 5 μM of DDC for 5 minutes at room temperature, under three different conditions: (i). without any further treatment; (ii). under conditions of Ca^2+-deprivation, induced by 20 μM of BAPTA and 1 mM of EGTA (for 30 min. at 4° C.); (iii). upon restoration of Ca^2+, wherein platelet intracellular Ca^2+ levels were replenished by addition of 1 mM of CaCl2 and 2 μM of the calcium ionophore A23187. Non-activated platelets served as control. Platelets were subjected to flow cytometric (FACS) analysis using Becton-Dickinson cell sorter and CellQuest software. Excitation was at 360 nm and emission was measured at 530 nm.

[1] = as above; conditions: DDC 5 μM, 5 min
Description: as §1, §2, §3

In the case of `CN(C)c1cccc2c(S(=O)(=O)NC(CSSCC(NS(=O)(=O)c3cccc4c(N(C)C)cccc34)C(=O)O)C(=O)O)cccc12` (stereo not drawn) [DDC], the “NST830-binding, PI-permeable late apoptotic cells upon Ca2+-deprivation” value (Jurkat cells; BAPTA + EGTA) is reported as “unaffected”, the “NST830-binding, PI-permeable late apoptotic cells in the presence of rottlerin” value (Jurkat cells; rottlerin 0.5 μM) is reported as “no change was detected” and the “DDC uptake (fluorescence intensity), activated platelets under Ca2+-deprivation” value (activated platelets; BAPTA 20 μM + EGTA 1 mM, 30 min, 4° C.) is reported as “markedly reduced DDC uptake; also recorded: uptake of DDC was inhibited”. The “DDC uptake (fluorescence intensity), activated platelets upon restoration of Ca2+” value (activated platelets; CaCl2 1 mM + A23187 2 μM after deprivation) was “completely restored; also recorded: fluorescence returned to the high values”, the “DDC uptake (fluorescence intensity), activated platelets” value (activated platelets; activated with A23187 + 5 mM CaCl2, DDC 5 μM, 5 min) was “significant shift to higher fluorescence values; also recorded: marked enhancement of fluorescence as compared to controls; also recorded: marked shift to higher fluorescence levels; also recorded: marked shift to higher fluorescence intensity” and the “DDC uptake (fluorescence intensity), control non-activated platelets” value [1] was “low levels of fluorescence intensity; also recorded: only minimal uptake of DDC”.

Source: patent US20040141912A1, “Method for targeting chemical compounds to cells and pharmaceutical compositions used therein” (priority 2001, published 2004)
